According to PMC9428149, “Tackling recalcitrant Pseudomonas aeruginosa infections in critical illness via anti-virulence monotherapy” (Nature Communications, 2022):
Converted amounts (≈) assume the structure as drawn. Read-outs that look alike come from different tables or passages of the source.

Assays:
MvfR protein (MvfRC87) = molecular target: T1, MvfR protein (MvfRC87) (Pseudomonas aeruginosa, UniProt Q9I4X0); type: binding; settings: SPR
T1 construct: The MvfRC87 protein purified as in Xiao et. al., 2006; made in house
T1 sequence (Q9I4X0 87-332): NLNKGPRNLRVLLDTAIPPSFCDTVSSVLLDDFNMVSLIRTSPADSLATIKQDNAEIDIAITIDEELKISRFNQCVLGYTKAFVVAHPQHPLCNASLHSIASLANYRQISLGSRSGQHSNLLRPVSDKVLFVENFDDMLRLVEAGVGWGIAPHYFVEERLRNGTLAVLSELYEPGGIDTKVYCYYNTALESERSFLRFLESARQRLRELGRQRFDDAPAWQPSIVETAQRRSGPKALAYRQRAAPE
Protocol: The selected compounds were tested for their ability to bind to MvfR. Target validation was carried out by using surface plasmon resonance (SPR). The MvfRC87 protein purified as in Xiao et. al., 2006[33] was covalently immobilized on a CM7 Series S sensor chip using an amine coupling reagent kit (GE Healthcare) at the range level of 3000 to 5000 response units (RU). RU was analyzed by Biacore T200 evaluation software 2.0 (GE Healthcare). The relative response units (RUs) 5 seconds before the end of the association were extracted from the double-reference-corrected sensor grams at different concentrations. These responses were plotted against their respective concentrations for MvfR inhibitor alone and in the presence of native MvfR ligand PQS and compared to the calculated responses for the mixture expected for different binding sites.

[1] = system: PA14 isogenic mutant ΔmvfR AT/P cells; test: AT/P cell formation in ΔmvfR mutant (off-target); settings: Pseudomonas aeruginosa, PA14, 24 h, read-out: AT/P cell formation, ΔmvfR + compound; PA14 about 100; single replicates (Figure 4b)
[2] = system: pqsA promoter (PA14 PpqsA-GFPASV); test: pqsA-GFP reporter expression; type: cell-based, Pseudomonas aeruginosa; settings: Pseudomonas aeruginosa
[3] = system: 16 MDR P. aeruginosa clinical isolates; test: Pyocyanin production in MDR clinical isolates; settings: Pseudomonas aeruginosa, 18 h, Control about 100, replicates
[4] = Solubility in iPBS pH 7.4 by HPLC; type: physicochemical; settings: isotonic phosphate buffer (iPBS), aqueous with cosolvent or surfactant or cyclodextrin, kinetic from dmso stock; iPBS pH 7.4, HPLC; read-out: Solubility (M) in PBS
Protocol: Solubility of the 10 mM compounds dissolved in DMSO was tested in the isotonic phosphate buffer (iPBS) at pH 7.4 using High-Performance Liquid Chromatography (HPLC). For the preparation of iPBS phosphate-buffered saline tab (Sigma-Aldrich 08057-12Tab-F) is dissolved in 500 mL of deionized water and the final composition of the solution contains 10 mM PBS, 2.7 mM KCl, 140 mM NaCl and 0.05% Tween. A total 10 µL of the compound from a 10 mM stock solution in DMSO was added to the vial, and 190 µL of buffer was added to each vial and mixed with shaking at room temperature for 4 h. Thereafter the samples were filtered, and 160 µL of the sample was mixed with 40 µL of DMSO for the final injection. Ibuprofen (high solubility) and Progesterone (low Solubility) were used as standard compounds. Ammonium Acetate aqueous solution (50 mM, pH 7.4) and the acetonitrile were used as mobile phases A and B, respectively. The measurement of concentration was achieved by comparing of UV absorbance of the sample solution and the known standard solution following an HPLC separation using a generic fast gradient method. The solubility of each compound is expressed by the ratio of compound amount in the sample test solution to the amount of compound in the standard solution.

PA14 AT/P cells = test: AT/P cells formation assay in PA14; type: cell-based, Pseudomonas aeruginosa; settings: Pseudomonas aeruginosa, PA14, 24 h, read-out: inhibition of AT/P cells formation
[5] = system: mvfR mutant constitutively expressing the pqsABCDE operon; type: cell-based; settings: Pseudomonas aeruginosa, control about 100, single replicates (Figure 4a)
[6] = system: pyocyanin production in PA14; test: Pyocyanin production assay; settings: Pseudomonas aeruginosa
[7] = system: MvfR-regulated small molecules in PA14; test: Production of HAQs, 2-AA, DHQ and AA in PA14 cultures (LC-MS); settings: Pseudomonas aeruginosa

## N#Cc1ccc(NC(=O)CC(=O)Nc2ccc(Br)cc2)cc1 [D42]
MvfR protein (MvfRC87); Concentration 1.00E-05 M
  Response Unit (RU): 30 RU
MvfR protein (MvfRC87); Concentration 1.00E-06 M
  Response Unit (RU): 23 RU
MvfR protein (MvfRC87); Concentration 1.00E-07 M
  Response Unit (RU): 10.1 RU
MvfR protein (MvfRC87); Concentration 1.00E-08 M
  Response Unit (RU): 2.1 RU
MvfR protein (MvfRC87); Concentration 3.16E-06 M
  Response Unit (RU): 27.4 RU
MvfR protein (MvfRC87); Concentration 3.16E-07 M
  Response Unit (RU): 16.8 RU
MvfR protein (MvfRC87); Concentration 3.16E-08 M
  Response Unit (RU): 5 RU
[1]
  activity at 10 µM: 25.1%
[2]; PA14, read-out: % Production pqsA-GFP
  activity at 50 µM: 8%
[2]; PA14, read-out: IC50 pqsA-GFP expression, PA14, 13 concentrations
  IC50: 920 nM
[3]; read-out: Pyocyanin production relative to Control, clinical isolate LGR-4325
  activity at 10 µM: 15.2%
[3]; read-out: Pyocyanin production relative to Control, clinical isolate LGR-4326
  activity at 10 µM: 9.87%
[3]; read-out: Pyocyanin production relative to Control, clinical isolate LGR-4327
  activity at 10 µM: 23.8%
[3]; read-out: Pyocyanin production relative to Control, clinical isolate LGR-4328
  activity at 10 µM: 15.7%
[3]; read-out: Pyocyanin production relative to Control, clinical isolate LGR-4330
  activity at 10 µM: 16.4%
[3]; read-out: Pyocyanin production relative to Control, clinical isolate LGR-4331 (first section, r117)
  activity at 10 µM: 17.2%
[3]; read-out: Pyocyanin production relative to Control, clinical isolate LGR-4331 (second section, r140)
  activity at 10 µM: 10%
[3]; read-out: Pyocyanin production relative to Control, clinical isolate LGR-4333
  activity at 10 µM: 11.6%
[3]; read-out: Pyocyanin production relative to Control, clinical isolate LGR-4343
  activity at 10 µM: 15.3%
[3]; read-out: Pyocyanin production relative to Control, clinical isolate LGR-4344
  activity at 10 µM: 19.4%
[3]; read-out: Pyocyanin production relative to Control, clinical isolate LGR-4348
  activity at 10 µM: 11.9%
[3]; read-out: Pyocyanin production relative to Control, clinical isolate LGR-4356
  activity at 10 µM: 16.3%
[3]; read-out: Pyocyanin production relative to Control, clinical isolate LGR-4362
  activity at 10 µM: 26.2%
[3]; read-out: Pyocyanin production relative to Control, clinical isolate LGR-4363
  activity at 10 µM: 20.8%
[3]; read-out: Pyocyanin production relative to Control, clinical isolate LGR-4364 (first section, r326)
  activity at 10 µM: 16.1%
[3]; read-out: Pyocyanin production relative to Control, clinical isolate LGR-4364 (second section, r349)
  activity at 10 µM: 16.4%
[4]
  solubility at 4 h: 1.5e-05 M (≈ 5.37 µg/mL)
PA14 AT/P cells
  inhibition at 10 µM: ≥ 76%
[5]; read-out: HQNO, ΔmvfR-pqsABCD strain
  activity at 50 µM: 90.7%
[5]; read-out: PQS, ΔmvfR-pqsABCD strain
  activity at 50 µM: 98.9%
[6]; PA14, 18 h, read-out: % Production Pyocyanin
  activity at 50 µM: 6%
[6]; PA14, read-out: IC50 pyocyanin production
  IC50: 1340 nM
[7]; PA14, read-out: % Production 2-AA
  activity at 50 µM: 6%
[7]; PA14, read-out: % Production AA
  activity at 50 µM: 701%
[7]; PA14, read-out: % Production DHQ
  activity at 50 µM: 11%
[7]; PA14, read-out: % Production HHQ
  activity at 50 µM: 2%
[7]; PA14, read-out: % Production HQNO
  activity at 50 µM: 14%
[7]; PA14, read-out: % Production PQS
  activity at 50 µM: 8%
[7]; PA14, read-out: HHQ production inhibition
  inhibition at 50 µM: 89 to 99%
[7]; PA14, read-out: HQNO production inhibition
  inhibition at 50 µM: 40 to 92%
[7]; PA14, read-out: PQS production inhibition
  inhibition at 50 µM: 76 to 97%
[7]; PA14, read-out: inhibition of 2-AA production
  inhibition at 50 µM: 82 to 95%
[7]; PA14, read-out: inhibition of DHQ production
  inhibition at 50 µM: 82 to 96%
